Test results: US20260285872A1, “COMPOUNDS AND METHODS FOR DEGRADING GSPT1” (priority 2023, published 2026)
pIC50: −log10 of the molar value. Like-named read-outs stand apart in the source and are kept apart here.

What was measured:
Format in all cases: cell-based
[1] = test system: MV-4-11 cells; assay: AML cell viability, CellTiter-Glo, MV-4-11 cells; details: Homo sapiens, MV4-11, CellTiter-Glo
Experimental: MV4-11 cells were obtained from ATCC and grown in IMDM supplemented with 10% FBS. The cells were maintained at 37° C. under 5% CO2. […] The luminescence was normalized to that of DMSO-treated samples. IC50 values were obtained using three-parameter non-linear regressions using Prism (GraphPad). […] Cell viability was measured using the CellTiter-Glo reagent after 44 hours of treatment. […] MV4-11 cells were obtained from ATCC and grown in IMDM supplemented with 10% FBS. The cells were maintained at 37° C. under 5% CO2. […] Cell viability was measured using the CellTiter-Glo reagent after 44 hours of treatment.

[2] = target: GSPT1 (Homo sapiens, UniProt P15170+Q96SW2)
Chain of GSPT1 (P15170 whole entry): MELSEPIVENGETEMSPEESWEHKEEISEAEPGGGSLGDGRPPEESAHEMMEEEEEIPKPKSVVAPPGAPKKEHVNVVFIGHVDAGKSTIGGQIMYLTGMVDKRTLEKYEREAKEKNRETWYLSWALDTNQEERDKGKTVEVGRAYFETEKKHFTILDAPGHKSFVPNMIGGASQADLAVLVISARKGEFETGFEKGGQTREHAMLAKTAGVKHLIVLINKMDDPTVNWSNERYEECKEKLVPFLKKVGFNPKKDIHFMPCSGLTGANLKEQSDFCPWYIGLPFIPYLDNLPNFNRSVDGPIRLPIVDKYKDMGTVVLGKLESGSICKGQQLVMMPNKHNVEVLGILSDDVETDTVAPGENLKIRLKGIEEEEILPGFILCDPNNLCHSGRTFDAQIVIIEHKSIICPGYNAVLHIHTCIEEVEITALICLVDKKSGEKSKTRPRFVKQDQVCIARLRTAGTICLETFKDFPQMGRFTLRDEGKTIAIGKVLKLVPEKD
Chain of GSPT1 (Q96SW2 whole entry): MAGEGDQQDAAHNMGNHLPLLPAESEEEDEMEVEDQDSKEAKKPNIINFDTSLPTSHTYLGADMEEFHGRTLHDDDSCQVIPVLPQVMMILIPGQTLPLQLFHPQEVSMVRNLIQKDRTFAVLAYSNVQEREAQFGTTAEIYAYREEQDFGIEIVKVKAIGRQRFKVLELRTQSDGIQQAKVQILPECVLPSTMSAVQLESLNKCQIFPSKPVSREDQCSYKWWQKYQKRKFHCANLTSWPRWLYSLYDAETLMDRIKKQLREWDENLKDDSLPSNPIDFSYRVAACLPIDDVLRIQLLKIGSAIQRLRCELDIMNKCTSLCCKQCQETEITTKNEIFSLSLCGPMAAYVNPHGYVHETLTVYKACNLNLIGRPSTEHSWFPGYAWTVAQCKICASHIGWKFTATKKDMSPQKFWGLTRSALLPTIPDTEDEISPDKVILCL
Chain of GSPT1 (Q16531 whole entry partner): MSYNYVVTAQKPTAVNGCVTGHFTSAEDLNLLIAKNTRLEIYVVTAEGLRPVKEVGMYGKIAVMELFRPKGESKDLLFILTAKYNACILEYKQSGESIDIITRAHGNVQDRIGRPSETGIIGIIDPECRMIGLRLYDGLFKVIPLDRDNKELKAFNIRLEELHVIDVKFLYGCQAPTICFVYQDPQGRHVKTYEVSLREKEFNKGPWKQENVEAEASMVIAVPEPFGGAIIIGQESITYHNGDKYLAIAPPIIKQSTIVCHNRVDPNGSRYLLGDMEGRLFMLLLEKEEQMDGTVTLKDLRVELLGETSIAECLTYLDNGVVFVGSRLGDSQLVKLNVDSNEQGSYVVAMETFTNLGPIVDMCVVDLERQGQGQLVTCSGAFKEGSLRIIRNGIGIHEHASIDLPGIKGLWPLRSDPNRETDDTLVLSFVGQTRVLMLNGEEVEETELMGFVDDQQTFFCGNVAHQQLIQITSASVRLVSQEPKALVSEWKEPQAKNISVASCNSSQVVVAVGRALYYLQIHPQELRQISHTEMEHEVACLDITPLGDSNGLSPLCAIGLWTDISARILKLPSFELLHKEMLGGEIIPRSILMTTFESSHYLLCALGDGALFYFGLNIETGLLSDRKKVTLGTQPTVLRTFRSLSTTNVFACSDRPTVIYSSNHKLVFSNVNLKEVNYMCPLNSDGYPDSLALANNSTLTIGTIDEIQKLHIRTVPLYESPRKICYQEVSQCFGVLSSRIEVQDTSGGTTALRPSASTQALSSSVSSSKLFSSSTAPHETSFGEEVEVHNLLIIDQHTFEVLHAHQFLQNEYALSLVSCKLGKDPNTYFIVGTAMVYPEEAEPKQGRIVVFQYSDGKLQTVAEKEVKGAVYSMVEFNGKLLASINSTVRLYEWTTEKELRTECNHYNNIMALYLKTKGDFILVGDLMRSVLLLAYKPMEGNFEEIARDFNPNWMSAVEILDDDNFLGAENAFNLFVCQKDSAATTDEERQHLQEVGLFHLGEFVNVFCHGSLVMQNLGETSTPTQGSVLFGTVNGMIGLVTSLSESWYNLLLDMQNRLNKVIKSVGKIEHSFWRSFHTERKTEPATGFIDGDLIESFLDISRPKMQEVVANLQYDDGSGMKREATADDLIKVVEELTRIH
Experimental: GSPT1_HiBIT_HEK293 cells were culture in DMEM medium with 10% FBS under standard tissue culture conditions. […] GSPT1 level was determined in along with the Nano-Glo HiBiT Lytic Detection system [Promega N3050] with final concentration of 1×. The luminescence was normalized to that of DMSO-treated samples. DC50 values were obtained using three-parameter non-linear regressions using Prism (GraphPad).

[3] = test system: NCI-H1155 cells; assay: NSCLC cell viability, CellTiter-Glo, NCI-H1155 cells; details: Homo sapiens; NCI-H1155 cells, CellTiter-Glo, 72 hours of treatment; read-out: Cell viability classification (NCI-H1155)
[4] = MV-4-11 cells, 44 hours of treatment, TABLE 5, read-out: Cell viability classification (MV-4-11)
[5] = read-out: GSPT1 degradation classification; DC50, GSPT1_HiBIT_HEK293 cells, 16 hours, Nano-Glo HiBiT Lytic Detection
[6] = DC50, GSPT1_HiBIT_HEK293 cells, 16 hours, Nano-Glo HiBiT Lytic Detection; read-out: GSPT1 degradation classification

SMILES	pIC50 [1, 4]	pIC50 ([1]; TABLE 2, MV-4-11 cells assumed, 44 hours, read-out: Cell viability classification)	DC50 [2, 5] [µM]	pIC50 [3]	DC50 [2, 6] [µM]
O=C1CCN(c2ccc3ccc(C(=O)N4Cc5cccc(F)c5C4)cc3c2)C(=O)N1 [Example 127, 1-(7-(4-fluoroisoindoline-2-carbonyl)naphthalen-2-yl)dihydropyrimidine-2,4(1H,3H)-dione]	6.00 to 7.00	–	–	–	–
O=C1CCN(c2ccc3ccc(C(=O)N4CCc5c(F)cccc54)cc3c2)C(=O)N1 [Example 126, 1-(7-(4-fluoroindoline-1-carbonyl)naphthalen-2-yl)dihydropyrimidine-2,4(1H,3H)-dione]	< 6.00	–	–	–	–
COc1cc(F)c2c(c1)CCN2C(=O)c1ccc2c(c1)CN(C1CCC(=O)NC1=O)C2=O (stereo not drawn) [Example 64, 3-(5-(7-fluoro-5-methoxyindoline-1-carbonyl)-1-oxoisoindolin-2-yl)piperidine-2,6-dione]	–	> 7.00	–	–	–
O=C1CCN(c2ccc3ccc(C(=O)N4CCc5ccccc54)cc3c2)C(=O)N1 [Example 120, 1-(7-(indoline-1-carbonyl)naphthalen-2-yl)dihydropyrimidine-2,4(1H,3H)-dione]	< 6.00	–	–	–	–
O=C1CCC(N2Cc3cc(C(=O)N4CC5(C=C(c6ccc(F)cc6)C5)C4)ccc3C2=O)C(=O)N1 (stereo not drawn) [Example 169, 3-(5-(6-(4-fluorophenyl)-2-azaspiro[3.3]hept-5-ene-2-carbonyl)-1-oxoisoindolin-2-yl)piperidine-2,6-dione]	–	–	> 1	7.00 to 8.00	–
O=C1CCC(N2Cc3cc(C(=O)N4CC5(C=C(c6ccccc6F)C5)C4)ccc3C2=O)C(=O)N1 (stereo not drawn) [Example 208, 3-(5-(6-(2-fluorophenyl)-2-azaspiro[3.3]hept-5-ene-2-carbonyl)-1-oxoisoindolin-2-yl)piperidine-2,6-dione]	–	–	< 0.1	> 8.00	–
Cc1cccc2c1CN(C(=O)c1ccc3c(c1)CN(C1CCC(=O)NC1=O)C3=O)C2 (stereo not drawn) [Example 130, 3-(5-(4-methylisoindoline-2-carbonyl)-1-oxoisoindolin-2-yl)piperidine-2,6-dione]	–	–	< 0.1	7.00 to 8.00	–
Cc1ccc(C2=CC3(C2)CN(C(=O)c2ccc4c(c2)CN(C2CCC(=O)NC2=O)C4=O)C3)cc1 (stereo not drawn) [Example 236, 3-(1-oxo-5-(6-(p-tolyl)-2-azaspiro[3.3]hept-5-ene-2-carbonyl)isoindolin-2-yl)piperidine-2,6-dione]	–	–	< 0.1	> 8.00	–
Cc1ccc(C2CC3(C2)CN(C(=O)c2ccc4c(c2)CN(C2CCC(=O)NC2=O)C4=O)C3)cc1 (stereo not drawn) [Example 231, 3-(1-oxo-5-(6-(p-tolyl)-2-azaspiro[3.3]heptane-2-carbonyl)isoindolin-2-yl)piperidine-2,6-dione]	–	–	–	> 8.00	< 0.1
O=C1CCC(N2Cc3cc(C(=O)N4CC(F)(c5ccccc5F)C4)ccc3C2=O)C(=O)N1 (stereo not drawn) [Example 202, 3-(5-(3-fluoro-3-(2-fluorophenyl)azetidine-1-carbonyl)-1-oxoisoindolin-2-yl)piperidine-2,6-dione]	–	–	0.1 to 0.3	7.00 to 8.00	–
O=C1CCC(N2Cc3cc(C(=O)N4CC5(CC(C(F)(F)F)C5)C4)ccc3C2=O)C(=O)N1 (stereo not drawn) [Example 145, 3-(1-oxo-5-(6-(trifluoromethyl)-2-azaspiro[3.3]heptane-2-carbonyl)isoindolin-2-yl)piperidine-2,6-dione]	–	–	> 1	7.00 to 8.00	–
O=C1CCC(c2nc3ccc(C(=O)N4Cc5cc(F)cc(F)c5C4)cc3o2)C(=O)N1 (stereo not drawn) [Example 176, 3-(6-(4,6-difluoroisoindoline-2-carbonyl)benzo[d]oxazol-2-yl)piperidine-2,6-dione]	–	–	–	6.00 to 7.00	0.3 to 1
O=C1CCC(N2Cc3cc(C(=O)N4Cc5cc(F)cc(F)c5C4)ccc3C2=O)C(=O)N1 (stereo not drawn) [Example 103, 3-(5-(4,6-difluoroisoindoline-2-carbonyl)-1-oxoisoindolin-2-yl)piperidine-2,6-dione]	–	–	< 0.1	> 8.00	–
O=C1CCC(c2nc3ccc(C(=O)N4Cc5cc(F)cc(Cl)c5C4)cc3o2)C(=O)N1 (stereo not drawn) [Example 178, 3-(6-(4-chloro-6-fluoroisoindoline-2-carbonyl)benzo[d]oxazol-2-yl)piperidine-2,6-dione]	–	–	–	7.00 to 8.00	0.3 to 1
O=C1CCC(N2Cc3cc(C(=O)NC4CC5(C=C(c6ccc(F)cc6F)C5)C4)c(F)cc3C2=O)C(=O)N1 (stereo not drawn) [Example 254, N-(6-(2,4-difluorophenyl)spiro[3.3]hept-5-en-2-yl)-2-(2,6-dioxopiperidin-3-yl)-6-fluoro-1-oxoisoindoline-5-carboxamide]	–	–	–	7.00 to 8.00	0.1 to 0.3
O=C1CCC(N2Cc3cc(C(=O)N4Cc5cccc(F)c5C45CC5)ccc3C2=O)C(=O)N1 (stereo not drawn) [Example 182, 3-(5-(7′-fluorospiro[cyclopropane-1,1′-isoindoline]-2′-carbonyl)-1-oxoisoindolin-2-yl)piperidine-2,6-dione]	–	–	< 0.1	> 8.00	–
O=C1CCC(N2Cc3cc(C(=O)N4CC5(CC(c6ccccc6F)C5)C4)ccc3C2=O)C(=O)N1 (stereo not drawn) [Example 196, 3-(5-(6-(2-fluorophenyl)-2-azaspiro[3.3]heptane-2-carbonyl)-1-oxoisoindolin-2-yl)piperidine-2,6-dione]	–	–	–	7.00 to 8.00	< 0.1
O=C1CCC(N2Cc3cc(C(=O)N4CC5(CC(c6ccc(C(F)(F)F)cc6)C5)C4)ccc3C2=O)C(=O)N1 (stereo not drawn) [Example 230, 3-(1-oxo-5-(6-(4-(trifluoromethyl)phenyl)-2-azaspiro[3.3]heptane-2-carbonyl)isoindolin-2-yl)piperidine-2,6-dione]	–	–	–	> 8.00	< 0.1
O=C1CCC(N2Cc3cc(C(=O)NC4CC5(C4)CC(c4ccc(F)c(F)c4)C5)ccc3C2=O)C(=O)N1 (stereo not drawn) [Example 217, N-(6-(3,4-difluorophenyl)spiro[3.3]heptan-2-yl)-2-(2,6-dioxopiperidin-3-yl)-1-oxoisoindoline-5-carboxamide]	–	–	–	7.00 to 8.00	0.1 to 0.3
O=C1CCC(N2Cc3cc(C(=O)N4Cc5ccc(F)c(F)c5C4)ccc3C2=O)C(=O)N1 (stereo not drawn) [Example 109, 3-(5-(4,5-difluoroisoindoline-2-carbonyl)-1-oxoisoindolin-2-yl)piperidine-2,6-dione]	–	–	< 0.1	7.00 to 8.00	–
O=C1CCC(c2nc3cc(COC(=O)Nc4cc(OC(F)(F)F)ccc4F)ccc3o2)C(=O)N1 (stereo not drawn) [Example 164, (2-(2,6-dioxopiperidin-3-yl)benzo[d]oxazol-5-yl)methyl (2-fluoro-5-(trifluoromethoxy)phenyl)carbamate]	–	–	–	7.00 to 8.00	0.1 to 0.3
O=C1CCC(N2Cc3cc(C(=O)N4Cc5c(F)ccc(F)c5C4)ccc3C2=O)C(=O)N1 (stereo not drawn) [Example 147, 3-(5-(4,7-difluoroisoindoline-2-carbonyl)-1-oxoisoindolin-2-yl)piperidine-2,6-dione]	–	–	< 0.1	7.00 to 8.00	–
O=C1CCC(N2Cc3cc(C(=O)NC4CC5(C4)CC(c4ccc(F)cc4F)C5)ccc3C2=O)C(=O)N1 (stereo not drawn) [Example 218, N-(6-(2,4-difluorophenyl)spiro[3.3]heptan-2-yl)-2-(2,6-dioxopiperidin-3-yl)-1-oxoisoindoline-5-carboxamide]	–	–	–	> 8.00	< 0.1
O=C1CCC(c2nc3ccc(C(=O)N4Cc5cccc(C(F)(F)F)c5C4)cc3o2)C(=O)N1 (stereo not drawn) [Example 174, 3-(6-(4-(trifluoromethyl)isoindoline-2-carbonyl)benzo[d]oxazol-2-yl)piperidine-2,6-dione]	–	–	–	6.00 to 7.00	0.3 to 1
O=C1CCC(N2Cc3cc(C(=O)N4CC5(C=C(c6cccc(F)c6)C5)C4)ccc3C2=O)C(=O)N1 (stereo not drawn) [Example 207, 3-(5-(6-(3-fluorophenyl)-2-azaspiro[3.3]hept-5-ene-2-carbonyl)-1-oxoisoindolin-2-yl)piperidine-2,6-dione]	–	–	< 0.1	7.00 to 8.00	–
O=C1CCC(c2nc3ccc(C(=O)N4Cc5c(F)ccc(OC(F)(F)F)c5C4)cc3o2)C(=O)N1 (stereo not drawn) [Example 210, 3-(6-(4-fluoro-7-(trifluoromethoxy)isoindoline-2-carbonyl)benzo[d]oxazol-2-yl)piperidine-2,6-dione]	–	–	–	< 6.00	> 1
O=C1CCC(N2Cc3cc(C(=O)N4CC5(C4)CC(F)(c4ccccc4F)C5)ccc3C2=O)C(=O)N1 (stereo not drawn) [Example 204, 3-(5-(6-fluoro-6-(2-fluorophenyl)-2-azaspiro[3.3]heptane-2-carbonyl)-1-oxoisoindolin-2-yl)piperidine-2,6-dione]	–	–	0.1 to 0.3	6.00 to 7.00	–
O=C1CCC(c2nc3ccc(C(=O)N4Cc5cccc(F)c5C45CC5)cc3o2)C(=O)N1 (stereo not drawn) [Example 211, 3-(6-(7′-fluorospiro[cyclopropane-1,1′-isoindoline]-2′-carbonyl)benzo[d]oxazol-2-yl)piperidine-2,6-dione]	–	–	–	6.00 to 7.00	> 1
O=C1CCC(N2Cc3cc(C(=O)NC4CC5(C4)CC(c4ccc(C(F)(F)F)cc4)C5)ccc3C2=O)C(=O)N1 (stereo not drawn) [Example 226, 2-(2,6-dioxopiperidin-3-yl)-1-oxo-N-(6-(4-(trifluoromethyl)phenyl)spiro[3.3]heptan-2-yl)isoindoline-5-carboxamide]	–	–	–	7.00 to 8.00	0.1 to 0.3
